{
  "source": "patent US9642829B2",
  "about": "“Antifungal compound and uses thereof” (The University of Hong Kong, priority 2012, dated 2017)",
  "key": {"C. albicans": {"tested_on": "C. albicans", "assay": "Yeast-to-hypha (Y-H) transition inhibition under strong hyphal inducing conditions", "assay_type": "cell-based, Candida albicans", "design": "Y-Hi (yeast-to-hypha inhibitory activity): unit: μg/ml", "source_text": "A large collection of small molecule library was screened in search of inhibitors of yeast-to-hypha transition (Y—H) of C. albicans using 384-well plate-high throughout assays (HTS). […] After subsequent studies with robust Y—H inducing conditions, we herein report a novel small molecule SM21 (FIG. 1) with strong Y-Hi activity and antifungal-activity.\nSeveral environmental conditions which are known to induce the hyphal formation of C. albicans such as serum, Lee's medium, Spider medium, temperature and 37° C. were used to test the ability of SM21 to inhibit Y—H transition. […] SM21 could act as a Y-Hi at a lower concentration of 0.025 μg/ml and 0.0.5 μg/ml for 10^4 cells/ml and 10^6 cells/ml of C. albicans, respectively. Chemical structure of SM21 is shown in (F)"}, "C. glabrata": {"tested_on": "C. glabrata", "assay": "Antifungal susceptibility (MIC/MFC), CLSI criteria", "assay_type": "cell-based, Candida glabrata", "details": "C. glabrata ATCC; 0.5 McFarland inoculum (10^6 cells/ml)", "protocol": "(§1) Antifungal activity of the small molecules was evaluated using USA standards, Clinical and Laboratory Standards Institute (CLSI) criteria. In brief, inocula from 24 h Candida cultures on Sabourauds's dextore agar were standardized to a turbidity equivalent of 0.5 McFarland standards at 520 nm with a spectrophotometer. The suspensions were further diluted in Rosewell Park Memorial Institute (RPMI) 1640 medium (Life technologies, New York, USA) to yield an inoculum concentration of approximately 0.5 1×10^3 to 2.5 1×10^3 cells/ml. Minimum inhibitory concentration (MIC) and minimum fungicidal concentration (MFC) assay was performed in 96-well plates (Iwaki, Tokyo, Japan) and each of the Candida species was exposed to a double dilution of SM21. Amphotericin B was used as a positive control. All the experiments were preformed three occasions with duplicates for all isolates. The plates were incubated at 35° C. for 48 h to evaluate MIC. In the case of Cryotococcus neoformans, reading were taken after 72 h. Aforementioned assay was performed for C. albicans ATCC 90028, C. albicans SC5314 and 10 C. albicans clinical isolates. Moreover, MIC/MFC determination was carried out for other fungal species such as C. glabrata, C. krusei, C. tropicalis, C. parapsilosis, C. neoformans, Aspergillus fumigates and Penicillium marneffei. […]"}, "C. krusei": {"tested_on": "C. krusei", "assay": "Antifungal susceptibility (MIC/MFC), CLSI criteria", "assay_type": "cell-based, Candida krusei", "details": "C. krusei ATCC; 0.5 McFarland inoculum (10^6 cells/ml)", "protocol": "as §1"}, "C. parapsilosis": {"tested_on": "C. parapsilosis", "assay": "Antifungal susceptibility (MIC/MFC), CLSI criteria", "assay_type": "cell-based, Candida parapsilosis", "details": "C. parapsilosis ATCC; 0.5 McFarland inoculum (10^6 cells/ml)", "protocol": "as §1"}, "C. neoformans": {"tested_on": "C. neoformans", "assay": "Antifungal susceptibility (MIC/MFC), CLSI criteria, reading after 72 h", "assay_type": "cell-based, Cryptococcus neoformans", "details": "0.5 McFarland inoculum (10^6 cells/ml)", "protocol": "as §1"}, "Escherichia coli": {"tested_on": "Escherichia coli", "assay": "Antibacterial activity (FIG. 3)", "assay_type": "cell-based", "details": "dose of 2 μg", "protocol": "(§2) FIGS. 3A-C. Antibacterial activity of SM21 at dose of 2 μg was examined for three bacterial species together with other antifungal agents caspofungin, amphotericin B and chlorhexidine. (A) Lactobacillus acidophilus (B) Streptococcus mutans and (C) Escherichia coli were used for the experiments.\n(§3) Oral Biosciences laboratory has one of the largest collections of fungal isolates, particular that of Candida species in the world. In our previous studies, we have found multidrug resistant clinical isolates of Candida species against existing antifungals. In particular, some of these strains are resistant to best antifungal agents to date such as caspofungin, amphotericin B and fluconazole. Therefore, we performed antifungal susceptibility testing for SM21 against these drug resistant Candida isolates suing CLSI M27A brothmicrodultion assay and CLSI M44-A disc diffusion assay."}, "[1]": {"tested_on": "Lactobacillus acidophilus", "assay": "Antibacterial activity (FIG. 3)", "assay_type": "cell-based", "details": "dose of 2 μg", "protocol": "as §2, §3"}, "Streptococcus mutans": {"tested_on": "Streptococcus mutans", "assay": "Antibacterial activity (FIG. 3)", "assay_type": "cell-based", "details": "dose of 2 μg", "protocol": "as §2, §3"}, "[2]": {"tested_on": "mixed species Candida biofilms", "assay": "Mixed species Candida biofilm MIC, XTT reduction assay", "assay_type": "cell-based", "details": "48 h mixed species biofilms, two Candida species at 1×10^7 cells/ml each", "protocol": "Clinical studies have shown that some of the Candida species could involve mixed Candida species such as C. albicans with non-albicans Candida species. Therefore, next we formed mixed species biofilms using the methods we have used in our previous published studies. This methodology is essentially similar to what mentioned under mono-species biofilms except initial inoculums involve two Candida species at equal inoculums size of 1×10^7 cells/ml. After 48 h of growth, mixed species Candida biofilms were subjected to serially diluted concentration of SM21 and MIC was determined by XTT reduction assay (FIG. 5)."}, "[3]": {"assay": "In vivo safety in mouse model", "details": "200 μg (100 times the effective dose of 2 μg) twice a day for five days", "protocol": "Next, we used mouse model and treated the animals with 100 times of the effective dose (2 μg) i.e. 200 μg of SM21 twice a day for five days."}, "[4]": {"tested_on": "C. albicans, C. glabrata, C. krusei, C. tropicalis, C. parapsilosis, C. neoformans, Aspergillus fumigates and Penicillium marneffei", "assay": "Antifungal activity against wide range of fungal species (summary)", "assay_type": "cell-based", "details": "range over fungal species", "protocol": "as §1"}},
  "data": [
    {"molecule": "CN(C)c1ccc(/C=C/c2cc(C(C)(C)C)[o+]c(C(C)(C)C)c2)cc1.[O-][Cl+3]([O-])([O-])[O-]", "note": "[SM21]", "values": [
      {"measurement": "Concentration acting as Y-Hi", "setting": "C. albicans; 10^4 cells/ml of C. albicans", "result": 0.025, "unit": "µg/mL"},
      {"measurement": "Y-Hi (yeast-to-hypha inhibitory activity)", "setting": "C. albicans; C. albicans 10^4 cells/ml", "result": 0.025},
      {"measurement": "Y-Hi (yeast-to-hypha inhibitory activity)", "setting": "C. albicans; C. albicans 10^5 cells/ml", "result": 0.5},
      {"measurement": "Y-Hi (yeast-to-hypha inhibitory activity)", "setting": "C. albicans; C. albicans 10^6 cells/ml", "result": 0.1},
      {"measurement": "Y-Hi (yeast-to-hypha inhibitory activity)", "setting": "C. albicans; C. albicans 10^7 cells/ml", "result": 0.2},
      {"measurement": "Morphology of C. albicans under hyphal inducing conditions", "setting": "C. albicans; incubated with SM21 at Y-Hi concentration, serum, Lee's medium, Spider medium, 37° C.", "result": "yeast morphology"},
      {"measurement": "Susceptibility (MIC90)", "setting": "C. glabrata", "result": 1.6, "unit": "µg/mL"},
      {"measurement": "Susceptibility (MIC90)", "setting": "C. krusei", "result": 0.4, "unit": "µg/mL"},
      {"measurement": "Susceptibility (MIC90)", "setting": "C. parapsilosis", "result": 1.6, "unit": "µg/mL"},
      {"measurement": "Susceptibility (MIC90)", "setting": "C. neoformans", "result": 0.4, "unit": "µg/mL"},
      {"measurement": "Antibacterial activity", "setting": "Escherichia coli", "result": "not anti-bacterial"},
      {"measurement": "Antibacterial activity", "setting": "[1]", "result": "not anti-bacterial"},
      {"measurement": "Antibacterial activity", "setting": "Streptococcus mutans", "result": "not anti-bacterial"},
      {"measurement": "Active concentration (MIC by XTT reduction assay) against mixed species biofilms", "setting": "[2]", "result": 25, "unit": "µg/mL"},
      {"measurement": "Detrimental effect in terms of weight reduction and side effects", "setting": "[3]", "result": "did not show any detrimental effect"},
      {"measurement": "Concentration with antifungal activity against wide range of fungal species", "setting": "[4]", "result": "0.2 to 6.25", "unit": "µg/mL"}
    ]}
  ]
}
